Values joined by “and” are separate entries in the source; they are usually repeats but may differ in a detail not shown here. Equal entries are not always repeated. Active and inactive are the calls of the source.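 Rule for the calls: active = compounds giving half or more protection of infected cells from virus-caused growth loss, again on retest; inactive = the rest.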
Tested on: CEM cells HIV-1 protection, formazan growth assay
Test: NCI AIDS Antiviral Assay
Conditions: for IC50: measured here: growth of uninfected CEM cells
How it was run: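 Category rules: moderately active means at least 50% protection on retest, and confirmed active means 100% protection reproducibly. The underlying data came from a formazan growth assay in HIV-1-infected CEM cells.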

Compound	EC50 [µM]	IC50	outcome
CCCCCCCCCCCCc1ccsc1-c1ccc(-c2ccc(-c3sc(-c4cc(CCCCCCCCCCCC)c(-c5ccc(-c6ccc(-c7sccc7CCCCCCCCCCCC)s6)s5)s4)cc3CCCCCCCCCCCC)s2)s1	> 50.1	> 50.1 µM	
CC(=O)Nc1c(S(=O)(=O)c2ccccc2)c(C)c(C)n1Cc1ccccc1	> 200	132 µM	
Cc1nn(-c2ccccc2)c(-c2ccccc2[N+](=O)[O-])c1CC#N			inactive
C/C(=N/NC(=S)N1CC2CCC(CC2)C1)c1cnccn1	> 2.24	0.049 µM	
C/C=C1/C(=Cc2[nH]c(C=c3[nH]/c(=C/C4=NC(=O)C(CC)=C4C)c(C)c3CCC(=O)O)c(CCC(=O)O)c2C)NC(=O)C1C (stereo not drawn)	> 28.8	> 28.8 µM	
CCCN1CN(C(C(=O)N[C@@H]2C(=O)N3C(C(=O)O)=C(C)CSC23)c2ccc(O)cc2)CSC1=S (stereo partly drawn)	> 347	195 µM	
COc1nc(N)c2c3c([nH]c2c1C#N)C(C)(C)c1ccccc1N3C	> 30.2	29.5 µM	
O=C1C(c2ccc([N+](=O)[O-])cc2)=[N+]([O-])c2ccc([N+](=O)[O-])cc21			inactive
Cc1cc(C)c2c(c1)CC2N (stereo not drawn)	> 1350	490 µM	
CN1C(=S)N2CCCCCCCC2c2c1nc(CCl)[nH]c2=O (stereo not drawn)	> 200	6.92 µM	
CC1CC(C)(C)C2=NCCN21 (stereo not drawn)	> 1620	> 1620 µM	
Cc1cccc2c1c(=O)c1c(O)c3c(cc1n2C)OC(C)(C)C=C3	> 200	87.1 µM	
CC1=CCP(C(F)(F)F)P(C(F)(F)F)C1 (stereo not drawn)	> 251	> 251 µM	
O=c1c(-c2ccc(Cl)cc2)nnc2n(Cc3ccccc3)c3ccccc3n12	> 200	> 200 µM	
N#C/C(N)=C(\C#N)N=C1OCC(O)C(O)C1O (stereo not drawn)			inactive
C=CCNC(=S)NC=C(C(N)=O)C(N)=O	> 200	> 200 µM	
S=c1c2cn[nH]c2nc2scc(-c3ccc(Cl)cc3)n12	> 200	13.2 µM	
COC1/C=C/OC2(C)Oc3c(C)c(O)c4c(O)c(c(/C=N/n5cnc6c(ncn6C6OC(CO)C(O)C6O)c5=O)c(O)c4c3C2=O)NC(=O)/C(C)=C\C=C\C(C)C(O)C(C)C(O)C(C)C(OC(C)=O)C1C (stereo not drawn)	> 200	66.1 µM	
CCC1=CCN(c2ccc(C)cc2)OC1c1ccc(OC)cc1 (stereo not drawn)	> 32.4	> 32.4 µM	
O=c1c(Cl)c(N2CCCCC2)cnn1-c1ccccc1	> 174	> 174 µM	
C=C1[C@@H]2O[C@@H]3CC(=O)[C@@H](O)[C@]2(C(=O)N1OC)[C@H]3/C=C/C	> 115	> 115 µM	
COc1ccc2[nH]c3c(c2c1)[C@H](c1ccccc1)C[C@@H]1C(=O)N(c2ccccc2)C(=O)[C@H]31			inactive

Compound	EC50 [µM]	IC50	outcome
O=C(c1ccccc1)[C@H]1Nc2ccc(Cl)cc2[C@H]2CCC[C@@H]12	> 4.68	> 4.68 µM	
CN1CCN(CC(=O)Nc2cccc3ccccc23)CC1	> 200	> 200 µM	
CCCO/N=C\c1c2c(O)c3c(O)c(C)c4c(c3c1O)C(=O)C(C)(O/C=C\C(OC)C(C)C(OC(C)=O)C(C)C(O)C(C)C(O)C(C)/C=C\C=C(\C)C(=O)N2)O4 (stereo not drawn)	> 100	5.25 µM	
C=CCC1[C@@H](C(C)(C)C(C(C)=O)C(=O)C(=O)OC)OC(C(C)(C)C)N1C(=O)OC (stereo partly drawn)	> 63.1	> 63.1 µM	
O=S(=O)(c1ccccc1)N1CCCC(c2ccccc2)CC1 (stereo not drawn)			inactive
OCC[N+]12CCCN1CCC2	> 1050	> 1050 µM	
CC1(C)Oc2ccccc2[N+]([O-])=C1c1ccccc1	> 141	> 141 µM	
O=C1c2ccccc2C(=O)N1Cc1ccccc1	> 200	> 200 µM	
O=C1CC2(CCC(O)(c3ccc(Cl)cc3)C(C(=O)c3ccc(Cl)cc3)C2)C(=O)c2ccccc2N1 (stereo not drawn)	> 200	67.6 µM	
O=C1OC2c3ccccc3C(=O)C2(c2ccccc2)N1c1ccccc1 (stereo not drawn)	> 200	126 µM	
COc1cc(C2=C(C)[C@@H]3CN(CC=C3c3ccc(Cl)cc3)C2)c(S(=O)(=O)O)cc1OC			inactive
CCOC(=O)[C@@H]1ON2O[C@H](OC3CCCCC3c3ccccc3)C[C@H]3OC(=O)[C@@H]1C32 (stereo partly drawn)	> 200	117 µM	
COC(=O)C1(C(=O)OC)Cc2ccc(C)cc2C2=C1C(=O)c1ccccc1C2=O	> 200	5.13 µM	
COc1c2c(c(OC)c3c1C(=O)c1ccccc1C3=O)C(=O)CCC2	> 8.13	> 8.13 µM	
Cc1cccc2c1Oc1cc(Cl)ccc1C2NC(=O)CCN1CCN(CCO)CC1 (stereo not drawn)	> 200	13.5 µM	
Clc1ccc(CSc2nnc(SCc3ccc(Cl)c(Cl)c3)c3[nH]cnc23)cc1Cl	> 200	12.6 µM	
CCOc1ccc(N=NC2C(=O)N(C(=O)CC(=O)Nc3ccccc3)N=C2C)cc1 (stereo not drawn)	> 200	20.4 µM	
COC(=O)C(Cc1nc2ccccc2[nH]c1=O)C(=O)C(=O)Nc1ccc(OC)cc1[N+](=O)[O-] (stereo not drawn)	> 398	> 398 µM	
Nc1ccc(C(=O)N2CCC[C@H]2CO)c(N)c1	> 200	> 200 µM	
O=[N+]([O-])c1c[c]([Sb](=[O])([OH])[OH])ccc1Cl	> 200	> 200 µM	
O=C1C2=C(c3ccccc31)C(c1ccc([N+](=O)[O-])cc1)NC(=S)N2 (stereo not drawn)	> 138	28.2 µM	
COc1cc(CNc2nc3c(NC(C)=O)cc(C(F)(F)F)cc3nc2-c2ccccc2)cc(OC)c1OC	> 13.8	11.7 µM	

Compound	EC50 [µM]	IC50	outcome
COC(=O)c1ccccc1C1CN=NC12Cc1ccc3ccccc3c1C2=O (stereo not drawn)	> 200	> 200 µM	
O=c1c2ccccc2[se]n1-c1ccccn1	7.76	16.2 µM	
CCCCOC(=O)c1ccc(N)cc1	> 200		
CCOP(=O)(CC1CC(O)(CNc2cc(Cl)nc(N)n2)C1)OCC (stereo not drawn)	> 200	> 200 µM	
Cn1c(=O)c(-c2ccccc2)c(N=[N+]=[N-])c2ccccc21	> 200	135 µM	
CC12CC(C/C1=N/O)C(C)(C)C2 (stereo not drawn)	> 1480	> 1480 µM	
NC(N)=N/N=C/c1c[nH]c2ccccc12	> 955	55 µM	
CC(=O)Nc1ccc(C2C(C(=O)Nc3ccccc3)=C(C)NC(C)=C2C(=O)Nc2ccccc2)cc1	> 74.1	> 74.1 µM	
O=C1NC(c2cccc(Cl)c2)N2C(=O)NC(c3cccc(Cl)c3)N12 (stereo not drawn)			inactive
CCCCOP(=O)(OCCCC)OP(=O)(OCCCC)OCCCC	> 200	> 200 µM	
C#CC(O)/C=C/C(O)CCCC(O)CC#CC(O)C#CCCCCC(O)/C=C/CCCCCC(=O)CCCCCCCCCCCCCC(O)C(O)C#CC(=O)O (stereo not drawn)	> 50.1	28.8 µM	
CC(C)CC(NC(=O)C(O)C(N)Cc1ccccc1)C(=O)O (stereo not drawn)	> 17	> 17 µM	
O=[N+]([O-])C(=C(Cl)Cl)C(Cl)=C(Cl)Cl	> 200	> 200 µM	
CC1=C(C(=O)NCc2ccccc2)C(c2ccccc2C)C(C(=O)NCc2ccccc2)=C(C)N1	> 21.4	> 21.4 µM	
CCCC(C(=O)OCCN(CC)CC)(c1ccccc1)c1ccccc1	> 200	102 µM and 37.2 µM	
OC1C=CC2C(CC1)C1(c3ccccc3)OC2(c2ccccc2)c2ccccc21 (stereo not drawn)			inactive
COc1ccc(NC(=O)C2=C(SC)C(C#N)C(=O)N=C2N)cc1 (stereo not drawn)	> 200	44.7 µM	
Cc1cc2c(cc1-c1cc3c(cc1C)C(C(C)C)=C(O)C(=O)/C3=C\Nc1c3ccccc3nc3ccccc13)/C(=C/Nc1c3ccccc3nc3ccccc13)C(=O)C(O)=C2C(C)C	> 100	1.74 µM	
C[C@@H]1OC2(O)[C@@H]3CCCN3C(=O)N(Cc3ccccc3)N2C1=O (stereo partly drawn)	> 200	> 200 µM	
Cc1cc2c(c(=O)o1)C1=S(SC(c3ccccc3)=C1)S2 (stereo not drawn)	75.9	> 200 µM	
O=C(Nc1ccc(Cl)cc1Cl)C1C(=O)C(=O)N(c2ccc(Cl)cc2Cl)C1=O (stereo not drawn)	> 8.51	> 8.51 µM	
COC(=O)c1ccc2n1C1CC3CC(CC2C3)C1	> 200	87.1 µM	

Compound	EC50 [µM]	IC50	outcome
CCOC(=O)/C(=C\c1cccs1)P(=O)(OCC)OCC	> 794	41.7 µM	
O=C1c2ccccc2C(=O)c2c1sc1nc3ccccc3n21	> 200	8.91 µM	
COC(=O)C1[C@@H](C(=O)OC)C12C=Cc1ccccc1C=C2 (stereo partly drawn)	> 200	> 200 µM	
C=CC1=CSNN1	> 437	347 µM	
Cc1cc(S(=O)(=O)N=C2Nc3cccc4cccc(c34)N2)c(S)cc1Cl	132	174 µM	
OC1CN=C2C=CC=CN2C1 (stereo not drawn)	> 200	> 200 µM	
CCOC(=O)N1C2C=C(C)C(ON2C(=O)c2ccccc2)C2C(C)C(=O)N21 (stereo not drawn)	> 355	> 355 µM	
COC(=O)N1CCC(Sc2ccccc2)C2(CCOC(=O)c3ccccc3)CCC(O)C12 (stereo not drawn)	> 40.7	> 40.7 µM	
C=C1CCc2ccccc2C1=O	> 200	31.6 µM	
COC(=O)/N=[N+](\[O-])C(c1ccccc1)c1ccccc1	> 200	191 µM	
COc1cccc(/C=C2\N=C(c3ccccc3)OC2=O)c1OC	> 200	91.2 µM	
Cc1c(-c2nc(N)c(C#N)c(N)c2C#N)c(=O)oc2ccccc12	> 200	115 µM	
CC1CN1SSN1CC1C (stereo not drawn)	> 200	182 µM	
Cc1cccc(C(O)c2ccncc2)c1O (stereo not drawn)	> 200	191 µM	
CCn1c(=O)c2c(=O)[nH][nH]c2c2ccccc21	> 200	> 200 µM	
CC1(C)OC(=O)C(=Cc2ccc(C#N)cc2)C(=O)O1	> 513	2.29 µM	
COc1cc2c(cc1OC)-c1cc3ccccc3c(=O)n1CCC2	> 20	2.82 µM	
COc1ccc(CNc2nc3cc(C(F)(F)F)ccc3nc2C(=O)O)cc1	> 200	38.9 µM	
O=C(COc1ccc(OCC(=O)N2C(=O)CC(=O)N(c3ccc(Cl)cc3)C2=S)cc1)N1C(=O)CC(=O)N(c2ccc(Cl)cc2)C1=S	> 200	42.7 µM	
C=CC[C@@]1(C#N)C[C@H](C[C@]2(C#N)C[C@H](CCl)OC(C)(C)O2)OC(C)(C)O1	> 200	107 µM	
